Test results reported in patent publication US20050214378A1, “Stealth lipid nanocapsules, methods for the preparation thereof and use thereof as a carrier for active principle(s)” (ETHYPHARM, priority 2002, published 2005).

Test: Solubility of paclitaxel and docetaxel in triglycerides
Format: physicochemical
Details: no recrystallization at room temperature; for Solubility in Labrafac CC: triglyceride Labrafac CC, C8 content 56.7%; for Solubility in Miglyol 810 N: triglyceride Miglyol 810 N, C8 content 70.4%; for Solubility in Tricaprylin: triglyceride Tricaprylin, C8 >99%
Procedure: A solution of docetaxel or paclitaxel in triglycerides, which will constitute the inner core of the lipid nanocapsules, is prepared by dissolving the drug into the triglyceride at 75° C. The amount of drug is adjusted in order to obtain solutions that will not recrystallize upon cooling to room temperature.

| Structure (SMILES) | Solubility in Labrafac CC | Solubility in Miglyol 810 N | Solubility in Tricaprylin |
| --- | --- | --- | --- |
| CC(=O)O[C@@]12CO[C@@H]1C[C@H](O)[C@@]1(C)C(=O)[C@H](O)C3=C(C)[C@@H](OC(=O)[C@H](O)[C@@H](NC(=O)OC(C)(C)C)c4ccccc4)C[C@@](O)([C@@H](OC(=O)c4ccccc4)[C@H]21)C3(C)C [Docetaxel, docetaxel] | 2 % w/w | 3.9 % w/w | 7 % w/w |
| CC(=O)O[C@H]1C(=O)[C@@]2(C)[C@H]([C@H](OC(=O)c3ccccc3)[C@]3(O)C[C@H](OC(=O)[C@H](O)[C@@H](NC(=O)c4ccccc4)c4ccccc4)C(C)=C1C3(C)C)[C@]1(OC(C)=O)CO[C@@H]1C[C@@H]2O [Paclitaxel, paclitaxel] | 1.6 % w/w | 2.7 % w/w | 6 % w/w |
